# Experimental data: ChEMBL document CHEMBL3885881, “DrugMatrix”
# Species: Rattus norvegicus
# Experiment: DrugMatrix - Regimen: Daily Repeat
# Type: toxicity, organism-based, Sprague-Dawley
# Set-up: regimen Daily Repeat, gender Male, age 6-8 weeks
# Conditions: in vivo, po, 13 mg/kg, route oral GAVAGE, dose level Low, […]; for ABSOLUTE BASOPHIL / ABSOLUTE EOSINOPHIL / ABSOLUTE LYMPHOCYTE / ABSOLUTE MONOCYTE / ABSOLUTE SEGMENTED NEUTROPHIL / BASOPHIL / EOSINOPHIL / ERYTHROCYTE COUNT / HEMATOCRIT / HEMOGLOBIN / LEUKOCYTE COUNT / LYMPHOCYTE / MEAN CORPUSCULAR HEMOGLOBIN / MEAN CORPUSCULAR HEMOGLOBIN CONCENTRATION / MEAN CORPUSCULAR VOLUME / MONOCYTE / NEUTROPHIL / NUCLEATED RED BLOOD CELLS / PLATELET COUNT: tissue Blood; for ALANINE AMINOTRANSFERASE / ALBUMIN / ALKALINE PHOSPHATASE / ASPARTATE AMINOTRANSFERASE / BLOOD UREA NITROGEN / CARBON DIOXIDE / CHLORIDE / CHOLESTEROL / CREATINE PHOSPHOKINASE / CREATININE / GLUCOSE / LACTATE DEHYDROGENASE / LIPASE / PHOSPHORUS / POTASSIUM / SODIUM / TOTAL BILIRUBIN / TOTAL PROTEIN / URIC ACID: tissue Plasma
smiles,measurement,setting,value
CC1=C(/C=C/C(C)=C/C=C/C(C)=C\C(=O)O)C(C)(C)CCC1 [ISOTRETINOIN],ABSOLUTE BASOPHIL,"72 h, time 3 day",0 CELLS/uL
same,ABSOLUTE EOSINOPHIL,"72 h, time 3 day",0 CELLS/uL
same,ABSOLUTE LYMPHOCYTE,"72 h, time 3 day",5796.67 CELLS/uL
same,ABSOLUTE MONOCYTE,"72 h, time 3 day",69.67 CELLS/uL
same,ABSOLUTE SEGMENTED NEUTROPHIL,"72 h, time 3 day",533.67 CELLS/uL
same,BASOPHIL,"72 h, time 3 day",0%
same,EOSINOPHIL,"72 h, time 3 day",0%
same,ERYTHROCYTE COUNT,"72 h, time 3 day",5.14 x10E6/uL
same,HEMATOCRIT,"72 h, time 3 day",32.4%
same,HEMOGLOBIN,"72 h, time 3 day",12.5 G/DL
same,LEUKOCYTE COUNT,"72 h, time 3 day",6.4 x10E3/uL
same,LYMPHOCYTE,"72 h, time 3 day",90.67%
same,MEAN CORPUSCULAR HEMOGLOBIN,"72 h, time 3 day",24.33 pg
same,MEAN CORPUSCULAR HEMOGLOBIN CONCENTRATION,"72 h, time 3 day",38.63 G/DL
same,MEAN CORPUSCULAR VOLUME,"72 h, time 3 day",63.07 fL
same,MONOCYTE,"72 h, time 3 day",1%
same,NEUTROPHIL,"72 h, time 3 day",8.33%
same,NUCLEATED RED BLOOD CELLS,"72 h, time 3 day",0 /100WBC
same,PLATELET COUNT,"72 h, time 3 day",977.33 x10E3/uL
same,ALANINE AMINOTRANSFERASE,"72 h, time 3 day",80.33 u/L
same,ALBUMIN,"72 h, time 3 day",3.7 G/DL
same,ALKALINE PHOSPHATASE,"72 h, time 3 day",427.67 u/L
same,ASPARTATE AMINOTRANSFERASE,"72 h, time 3 day",93.33 u/L
same,BLOOD UREA NITROGEN,"72 h, time 3 day",12 mg/dL
same,CARBON DIOXIDE,"72 h, time 3 day",35 mmol/L
same,CHLORIDE,"72 h, time 3 day",101.33 MEQ/L
same,CHOLESTEROL,"72 h, time 3 day",70.33 mg/dL
same,CREATINE PHOSPHOKINASE,"72 h, time 3 day",298 u/L
same,CREATININE,"72 h, time 3 day",0.1 mg/dL
same,GLUCOSE,"72 h, time 3 day",159.67 mg/dL
same,LACTATE DEHYDROGENASE,"72 h, time 3 day",103.33 u/L
same,LIPASE,"72 h, time 3 day",9.33 u/L
same,PHOSPHORUS,"72 h, time 3 day",9.4 mg/dL
same,POTASSIUM,"72 h, time 3 day",5.18 MEQ/L
same,SODIUM,"72 h, time 3 day",146.37 MEQ/L
same,TOTAL BILIRUBIN,"72 h, time 3 day",0.23 mg/dL
same,TOTAL PROTEIN,"72 h, time 3 day",5.77 G/DL
same,URIC ACID,"72 h, time 3 day",0.43 mg/dL
same,ABSOLUTE BASOPHIL,"120 h, time 5 day",0 CELLS/uL
same,ABSOLUTE EOSINOPHIL,"120 h, time 5 day",25 CELLS/uL
same,ABSOLUTE LYMPHOCYTE,"120 h, time 5 day",7680.33 CELLS/uL
same,ABSOLUTE MONOCYTE,"120 h, time 5 day",0 CELLS/uL
same,ABSOLUTE SEGMENTED NEUTROPHIL,"120 h, time 5 day",428 CELLS/uL
same,BASOPHIL,"120 h, time 5 day",0%
same,EOSINOPHIL,"120 h, time 5 day",0.33%
same,ERYTHROCYTE COUNT,"120 h, time 5 day",5.2 x10E6/uL
same,HEMATOCRIT,"120 h, time 5 day",33.33%
same,HEMOGLOBIN,"120 h, time 5 day",13.23 G/DL
same,LEUKOCYTE COUNT,"120 h, time 5 day",8.13 x10E3/uL
same,LYMPHOCYTE,"120 h, time 5 day",94.33%
same,MEAN CORPUSCULAR HEMOGLOBIN,"120 h, time 5 day",25.47 pg
same,MEAN CORPUSCULAR HEMOGLOBIN CONCENTRATION,"120 h, time 5 day",39.7 G/DL
same,MEAN CORPUSCULAR VOLUME,"120 h, time 5 day",64.1 fL
same,MONOCYTE,"120 h, time 5 day",0%
same,NEUTROPHIL,"120 h, time 5 day",5.33%
same,NUCLEATED RED BLOOD CELLS,"120 h, time 5 day",0 /100WBC
same,PLATELET COUNT,"120 h, time 5 day",1135 x10E3/uL
same,ALANINE AMINOTRANSFERASE,"120 h, time 5 day",75.67 u/L
same,ALBUMIN,"120 h, time 5 day",3.67 G/DL
same,ALKALINE PHOSPHATASE,"120 h, time 5 day",483 u/L
same,ASPARTATE AMINOTRANSFERASE,"120 h, time 5 day",105.33 u/L
same,BLOOD UREA NITROGEN,"120 h, time 5 day",12.33 mg/dL
same,CARBON DIOXIDE,"120 h, time 5 day",32 mmol/L
same,CHLORIDE,"120 h, time 5 day",98.67 MEQ/L
same,CHOLESTEROL,"120 h, time 5 day",57 mg/dL
same,CREATINE PHOSPHOKINASE,"120 h, time 5 day",433.67 u/L
same,CREATININE,"120 h, time 5 day",0.15 mg/dL
same,GLUCOSE,"120 h, time 5 day",156.67 mg/dL
same,LACTATE DEHYDROGENASE,"120 h, time 5 day",119.33 u/L
same,LIPASE,"120 h, time 5 day",9 u/L
same,PHOSPHORUS,"120 h, time 5 day",10.47 mg/dL
same,POTASSIUM,"120 h, time 5 day",5.72 MEQ/L
same,SODIUM,"120 h, time 5 day",143.43 MEQ/L
same,TOTAL BILIRUBIN,"120 h, time 5 day",0.3 mg/dL
same,TOTAL PROTEIN,"120 h, time 5 day",5.7 G/DL
same,URIC ACID,"120 h, time 5 day",0.67 mg/dL
